Test results: PMC6979384, “Characterization of the plant homeodomain (PHD) reader family for their histone tail interactions” (Epigenetics & Chromatin, 2020)

Tests used:
Experiment in all cases: Histone peptide microarray
Assay type in all cases: binding, human
KDM5A (3) = conditions: for Array Heatmap signal, KDM5A (3): GST-tagged KDM5A (3), histone peptide array, arrays performed twice, n of 4
How it was run: (§1)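 GST-PHD reader, 0.5 μM, probed on 293-peptide histone array (single/combinatorial PTMs); optimized array protocol; signal = mean ± SD, n = 4.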

CHD5 (PPCC) = conditions: for Array Heatmap signal, CHD5 (PPCC): GST-tagged CHD5 (PPCC = Dual PHD + Dual Chromodomain), histone peptide array, arrays performed twice, n of 4
How it was run: as §1

KDM5B (3) = conditions: for Array Heatmap signal, KDM5B (3): GST-tagged KDM5B (3), histone peptide array, arrays performed twice, n of 4
How it was run: as §1

ING1 = conditions: for Array Heatmap signal, ING1: GST-tagged ING1, histone peptide array, arrays performed twice, n of 4
How it was run: as §1

BAZ2B = conditions: for Array Heatmap signal, BAZ2B: GST-tagged BAZ2B, histone peptide array, arrays performed twice, n of 4
How it was run: as §1

MORC3 (CW) = conditions: for Array Heatmap signal, MORC3 (CW): GST-tagged MORC3 (CW = CW-type Zn-finger), histone peptide array, arrays performed twice, n of 4
How it was run: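 Steps: express and purify GST-tagged PHD reader; incubate 0.5 μM protein on a peptide microarray (293 histone peptides, single or combined PTMs) following an optimized protocol; average signal across 4 replicates.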

DPF2 (PPC2W2) = conditions: for Array Heatmap signal, DPF2 (PPC2W2): GST-tagged DPF2 (PPC2W2 = Dual PHD + C2W2-type Zn-finger), histone peptide array, arrays performed twice, n of 4
How it was run: as §1

PHF8 = conditions: for Array Heatmap signal, PHF8: GST-tagged PHF8, histone peptide array, arrays performed twice, n of 4
How it was run: as §1

SP140L = conditions: for Array Heatmap signal, SP140L: GST-tagged SP140L, histone peptide array, arrays performed twice, n of 4
How it was run: as §1

AIRE (PP) = conditions: for Array Heatmap signal, AIRE (PP): GST-tagged AIRE (PP), histone peptide array, arrays performed twice, n of 4
How it was run: as §1

KDM4C (TTP) = conditions: for Array Heatmap signal, KDM4C (TTP): GST-tagged KDM4C (TTP = Tandem Tudor domain + PHD), histone peptide array, arrays performed twice, n of 4
How it was run: as §1

ING5 = conditions: for Array Heatmap signal, ING5: GST-tagged ING5, histone peptide array, arrays performed twice, n of 4
How it was run: as §1

TAF3 = conditions: for Array Heatmap signal, TAF3: GST-tagged TAF3, histone peptide array, arrays performed twice, n of 4
How it was run: as §1

BPTF (PB) = conditions: for Array Heatmap signal, BPTF (PB): GST-tagged BPTF (PB = PHD + Bromodomain), histone peptide array, arrays performed twice, n of 4
How it was run: as §1

PHF13 = conditions: for Array Heatmap signal, PHF13: GST-tagged PHF13, histone peptide array, arrays performed twice, n of 4
How it was run: as §1

RAG2 = conditions: for Array Heatmap signal, RAG2: GST-tagged RAG2, histone peptide array, arrays performed twice, n of 4
How it was run: as §1

DIDO1 = conditions: for Array Heatmap signal, DIDO1: GST-tagged DIDO1, histone peptide array, arrays performed twice, n of 4
How it was run: as §1

KDM7A = conditions: for Array Heatmap signal, KDM7A: GST-tagged KDM7A, histone peptide array, arrays performed twice, n of 4
How it was run: as §1

KDM5B (1) = conditions: for Array Heatmap signal, KDM5B (1): GST-tagged KDM5B (1), histone peptide array, arrays performed twice, n of 4
How it was run: as §1

PHRF1 (RP) = conditions: for Array Heatmap signal, PHRF1 (RP): GST-tagged PHRF1 (RP), histone peptide array, arrays performed twice, n of 4
How it was run: as §1

ING2 = conditions: for Array Heatmap signal, ING2: GST-tagged ING2, histone peptide array, arrays performed twice, n of 4
How it was run: as §1

MLL5 = conditions: for Array Heatmap signal, MLL5: GST-tagged MLL5, histone peptide array, arrays performed twice, n of 4
How it was run: as §1

KDM5A (1) = conditions: for Array Heatmap signal, KDM5A (1): GST-tagged KDM5A (1), histone peptide array, arrays performed twice, n of 4
How it was run: as §1

ING4 = conditions: for Array Heatmap signal, ING4: GST-tagged ING4, histone peptide array, arrays performed twice, n of 4
How it was run: as §1

CHD4 (PPCC) = conditions: for Array Heatmap signal, CHD4 (PPCC): GST-tagged CHD4 (PPCC = Dual PHD + Dual Chromodomain), histone peptide array, arrays performed twice, n of 4
How it was run: as §1

PHF2 = conditions: for Array Heatmap signal, PHF2: GST-tagged PHF2, histone peptide array, arrays performed twice, n of 4
How it was run: as §1

PHF21A = conditions: for Array Heatmap signal, PHF21A: GST-tagged PHF21A, histone peptide array, arrays performed twice, n of 4
How it was run: as §1

ING3 = conditions: for Array Heatmap signal, ING3: GST-tagged ING3, histone peptide array, arrays performed twice, n of 4
How it was run: as §1

CHD5 (PCC) = conditions: for Array Heatmap signal, CHD5 (PCC): GST-tagged CHD5 (PCC = PHD + Dual Chromodomain), histone peptide array, arrays performed twice, n of 4
How it was run: as §1

PHF23 = conditions: for Array Heatmap signal, PHF23: GST-tagged PHF23, histone peptide array, arrays performed twice, n of 4
How it was run: as §1

TRIM66 (PB) = conditions: for Array Heatmap signal, TRIM66 (PB): GST-tagged TRIM66 (PB = PHD + Bromodomain), histone peptide array, arrays performed twice, n of 4
How it was run: as §1

## H4K20me3 (1-23): H4 1-23
KDM5A (3); KDM5A (3), sheet "Array Heatmap", each array performed twice, total n = 4
  Array Heatmap value (peptide array signal): 0.4449
CHD5 (PPCC); CHD5 (PPCC), sheet "Array Heatmap", each array performed twice, total n = 4
  Array Heatmap value (peptide array signal): 0.5147
KDM5B (3); KDM5B (3), sheet "Array Heatmap", each array performed twice, total n = 4
  Array Heatmap value (peptide array signal): 0.4599
ING1; ING1, sheet "Array Heatmap", each array performed twice, total n = 4
  Array Heatmap value (peptide array signal): 0.5131
BAZ2B; BAZ2B, sheet "Array Heatmap", each array performed twice, total n = 4
  Array Heatmap value (peptide array signal): 0.4188
MORC3 (CW); MORC3 (CW), sheet "Array Heatmap", each array performed twice, total n = 4
  Array Heatmap value (peptide array signal): 0.3692
DPF2 (PPC2W2); DPF2 (PPC2W2), sheet "Array Heatmap", each array performed twice, total n = 4
  Array Heatmap value (peptide array signal): 0.6148
PHF8; PHF8, sheet "Array Heatmap", each array performed twice, total n = 4
  Array Heatmap value (peptide array signal): 0.3429
SP140L; SP140L, sheet "Array Heatmap", each array performed twice, total n = 4
  Array Heatmap value (peptide array signal): 0.3602
AIRE (PP); AIRE (PP), sheet "Array Heatmap", each array performed twice, total n = 4
  Array Heatmap value (peptide array signal): 0.4048
KDM4C (TTP); KDM4C (TTP), sheet "Array Heatmap", each array performed twice, total n = 4
  Array Heatmap value (peptide array signal): 0.4703
ING5; ING5, sheet "Array Heatmap", each array performed twice, total n = 4
  Array Heatmap value (peptide array signal): 0.3228
TAF3; TAF3, sheet "Array Heatmap", each array performed twice, total n = 4
  Array Heatmap value (peptide array signal): 0.2546
BPTF (PB); BPTF (PB), sheet "Array Heatmap", each array performed twice, total n = 4
  Array Heatmap value (peptide array signal): 0.3468
PHF13; PHF13, sheet "Array Heatmap", each array performed twice, total n = 4
  Array Heatmap value (peptide array signal): 0.5943
RAG2; RAG2, sheet "Array Heatmap", each array performed twice, total n = 4
  Array Heatmap value (peptide array signal): 0.2424
DIDO1; DIDO1, sheet "Array Heatmap", each array performed twice, total n = 4
  Array Heatmap value (peptide array signal): 0.6567
KDM7A; KDM7A, sheet "Array Heatmap", each array performed twice, total n = 4
  Array Heatmap value (peptide array signal): 0.329
KDM5B (1); KDM5B (1), sheet "Array Heatmap", each array performed twice, total n = 4
  Array Heatmap value (peptide array signal): 0.6332
PHRF1 (RP); PHRF1 (RP), sheet "Array Heatmap", each array performed twice, total n = 4
  Array Heatmap value (peptide array signal): 0.4228
ING2; ING2, sheet "Array Heatmap", each array performed twice, total n = 4
  Array Heatmap value (peptide array signal): 0.5794
MLL5; MLL5, sheet "Array Heatmap", each array performed twice, total n = 4
  Array Heatmap value (peptide array signal): 0.5073
KDM5A (1); KDM5A (1), sheet "Array Heatmap", each array performed twice, total n = 4
  Array Heatmap value (peptide array signal): 0.4224
ING4; ING4, sheet "Array Heatmap", each array performed twice, total n = 4
  Array Heatmap value (peptide array signal): 0.4304
CHD4 (PPCC); CHD4 (PPCC), sheet "Array Heatmap", each array performed twice, total n = 4
  Array Heatmap value (peptide array signal): 0.5546
PHF2; PHF2, sheet "Array Heatmap", each array performed twice, total n = 4
  Array Heatmap value (peptide array signal): 0.4783
PHF21A; PHF21A, sheet "Array Heatmap", each array performed twice, total n = 4
  Array Heatmap value (peptide array signal): 0.4514
ING3; ING3, sheet "Array Heatmap", each array performed twice, total n = 4
  Array Heatmap value (peptide array signal): 0.465
CHD5 (PCC); CHD5 (PCC), sheet "Array Heatmap", each array performed twice, total n = 4
  Array Heatmap value (peptide array signal): 0.7553
PHF23; PHF23, sheet "Array Heatmap", each array performed twice, total n = 4
  Array Heatmap value (peptide array signal): 0.5181
TRIM66 (PB); TRIM66 (PB), sheet "Array Heatmap", each array performed twice, total n = 4
  Array Heatmap value (peptide array signal): 0.5898

## H4R3me2a: H4 1-23 [Peptide H4R3me2a]
KDM5A (3)
  Array Heatmap signal, KDM5A (3): 0.5304
CHD5 (PPCC)
  Array Heatmap signal, CHD5 (PPCC): 0.5601
KDM5B (3)
  Array Heatmap signal, KDM5B (3): 0.6206
ING1
  Array Heatmap signal, ING1: 0.5321
BAZ2B
  Array Heatmap signal, BAZ2B: 0.5399
MORC3 (CW)
  Array Heatmap signal, MORC3 (CW): 0.3932
DPF2 (PPC2W2)
  Array Heatmap signal, DPF2 (PPC2W2): 0.6681
PHF8
  Array Heatmap signal, PHF8: 0.391
SP140L
  Array Heatmap signal, SP140L: 0.3676
AIRE (PP)
  Array Heatmap signal, AIRE (PP): 0.5327
KDM4C (TTP)
  Array Heatmap signal, KDM4C (TTP): 0.5587
ING5
  Array Heatmap signal, ING5: 0.4061
TAF3
  Array Heatmap signal, TAF3: 0.3922
BPTF (PB)
  Array Heatmap signal, BPTF (PB): 0.3886
PHF13
  Array Heatmap signal, PHF13: 0.6445
RAG2
  Array Heatmap signal, RAG2: 0.3803
DIDO1
  Array Heatmap signal, DIDO1: 0.7103
KDM7A
  Array Heatmap signal, KDM7A: 0.5968
KDM5B (1)
  Array Heatmap signal, KDM5B (1): 0.6754
PHRF1 (RP)
  Array Heatmap signal, PHRF1 (RP): 0.4379
ING2
  Array Heatmap signal, ING2: 0.6586
MLL5
  Array Heatmap signal, MLL5: 0.6462
KDM5A (1)
  Array Heatmap signal, KDM5A (1): 0.4898
ING4
  Array Heatmap signal, ING4: 0.4842
CHD4 (PPCC)
  Array Heatmap signal, CHD4 (PPCC): 0.544
PHF2
  Array Heatmap signal, PHF2: 0.4976
PHF21A
  Array Heatmap signal, PHF21A: 0.4696
ING3
  Array Heatmap signal, ING3: 0.4883
CHD5 (PCC)
  Array Heatmap signal, CHD5 (PCC): 0.8242
PHF23
  Array Heatmap signal, PHF23: 0.5402
TRIM66 (PB)
  Array Heatmap signal, TRIM66 (PB): 0.665

## H4R3me2s + K5ac + K8ac + K12ac + K16ac + K20ac: H4 1-23
KDM5A (3)
  Array Heatmap signal, KDM5A (3): 0.5291
CHD5 (PPCC)
  Array Heatmap signal, CHD5 (PPCC): 0.5595
KDM5B (3)
  Array Heatmap signal, KDM5B (3): 0.4887
ING1
  Array Heatmap signal, ING1: 0.5887
BAZ2B
  Array Heatmap signal, BAZ2B: 0.4891
MORC3 (CW)
  Array Heatmap signal, MORC3 (CW): 0.4281
DPF2 (PPC2W2)
  Array Heatmap signal, DPF2 (PPC2W2): 0.6954
PHF8
  Array Heatmap signal, PHF8: 0.384
SP140L
  Array Heatmap signal, SP140L: 0.3449
AIRE (PP)
  Array Heatmap signal, AIRE (PP): 0.4445
KDM4C (TTP)
  Array Heatmap signal, KDM4C (TTP): 0.4958
ING5
  Array Heatmap signal, ING5: 0.3711
TAF3
  Array Heatmap signal, TAF3: 0.282
BPTF (PB)
  Array Heatmap signal, BPTF (PB): 0.483
PHF13
  Array Heatmap signal, PHF13: 0.6071
RAG2
  Array Heatmap signal, RAG2: 0.3093
DIDO1
  Array Heatmap signal, DIDO1: 0.8519
KDM7A
  Array Heatmap signal, KDM7A: 0.3478
KDM5B (1)
  Array Heatmap signal, KDM5B (1): 0.6719
PHRF1 (RP)
  Array Heatmap signal, PHRF1 (RP): 0.4884
ING2
  Array Heatmap signal, ING2: 0.6618
MLL5
  Array Heatmap signal, MLL5: 0.5888
KDM5A (1)
  Array Heatmap signal, KDM5A (1): 0.4598
ING4
  Array Heatmap signal, ING4: 0.4768
CHD4 (PPCC)
  Array Heatmap signal, CHD4 (PPCC): 0.5891
PHF2
  Array Heatmap signal, PHF2: 0.6188
PHF21A
  Array Heatmap signal, PHF21A: 0.4472
ING3
  Array Heatmap signal, ING3: 0.4923
CHD5 (PCC)
  Array Heatmap signal, CHD5 (PCC): 0.7755
PHF23
  Array Heatmap signal, PHF23: 0.5758
TRIM66 (PB)
  Array Heatmap signal, TRIM66 (PB): 0.6231
